Data: patent publication US11485731B2, “Compounds and methods useful in the treatment of a PRMT5-mediated disorder” (ARGONAUT THERAPEUTICS LIMITED, priority 2017, dated 2022)

Biological target: human PRMT5/MEP50 (Homo sapiens (Human), UniProt O14744)
Experiment: PRMT5 chemiluminescent assay
Type: biochemical
Settings: human PRMT5/MEP50 expressed in HEK293 cells; biotinylated histone peptides; Histone H4 monomethyl R3 antibody; chemiluminescent readout
How it was run: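 HEK293-expressed PRMT5/MEP50, diluted to 5 ng/µL in assay buffer, reacted 60 min with rotation on plate-bound biotinylated histone peptides. Product was detected with anti-histone H4 R3 monomethyl antibody (60 min), then HRP secondary (30 min) and chemiluminescent substrate. IC50 values came from the chemiluminescence signal.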

Chain of human PRMT5/MEP50 (O14744 whole entry): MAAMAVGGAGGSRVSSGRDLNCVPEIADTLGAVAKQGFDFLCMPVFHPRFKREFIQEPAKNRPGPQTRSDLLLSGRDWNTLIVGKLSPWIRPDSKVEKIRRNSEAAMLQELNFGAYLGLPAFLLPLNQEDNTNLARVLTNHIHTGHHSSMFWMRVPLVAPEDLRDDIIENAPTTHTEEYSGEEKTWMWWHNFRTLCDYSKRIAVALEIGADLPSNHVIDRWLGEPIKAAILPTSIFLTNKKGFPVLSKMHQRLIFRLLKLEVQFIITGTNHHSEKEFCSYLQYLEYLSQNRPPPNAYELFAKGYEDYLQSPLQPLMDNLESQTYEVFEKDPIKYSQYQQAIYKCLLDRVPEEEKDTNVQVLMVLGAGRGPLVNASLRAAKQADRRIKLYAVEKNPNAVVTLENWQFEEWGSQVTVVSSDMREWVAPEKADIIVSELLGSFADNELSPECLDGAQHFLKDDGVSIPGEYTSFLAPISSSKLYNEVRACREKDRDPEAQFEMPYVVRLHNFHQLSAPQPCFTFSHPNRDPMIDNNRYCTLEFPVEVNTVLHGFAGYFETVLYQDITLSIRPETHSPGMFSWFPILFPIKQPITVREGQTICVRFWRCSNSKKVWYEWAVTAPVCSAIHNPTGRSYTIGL
Chain of human PRMT5/MEP50 (Q9BQA1 whole entry partner): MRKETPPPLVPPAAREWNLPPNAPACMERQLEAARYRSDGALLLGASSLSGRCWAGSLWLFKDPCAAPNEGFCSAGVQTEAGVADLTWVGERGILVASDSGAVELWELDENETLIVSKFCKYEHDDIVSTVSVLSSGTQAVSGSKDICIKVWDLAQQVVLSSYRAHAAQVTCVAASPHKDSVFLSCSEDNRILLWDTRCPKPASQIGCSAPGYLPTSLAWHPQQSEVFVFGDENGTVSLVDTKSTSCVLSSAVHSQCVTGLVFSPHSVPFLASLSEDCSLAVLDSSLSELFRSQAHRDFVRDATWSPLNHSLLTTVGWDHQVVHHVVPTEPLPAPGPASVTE

| Compound | IC50 [nM] |
| --- | --- |
| CN(C)C(=O)C1CN(C(=O)OCC(O)CN2CCc3ccccc3C2)C1 (centres unmarked) [Example 4S, 3-(3,4-dihydroisoquinolin-2(1H)-yl)-2-hydroxypropyl 3-(dimethylcarbamoyl)azetidine-1-carboxylate] | 5030 |
| O=C(OCC(O)CN1CCc2ccccc2C1)N1CC(C(=O)N2CCOCC2)C1 (centres unmarked) [Example 4T, 3-(3,4-dihydroisoquinolin-2(1H)-yl)-2-hydroxypropyl 3-(morpholine-4-carbonyl)azetidine-1-carboxylate] | 1860 |
| O=C(OCC(O)CN1CCc2ccccc2C1)N1CC(C(=O)N2C3CCC2COC3)C1 (centres unmarked) [Example 4U, 3-(3,4-dihydroisoquinolin-2(1H)-yl)-2-hydroxypropyl 3-(3-oxa-8-azabicyclo[3.2.1]octane-8-carbonyl)azetidine-1-carboxylate] | 2980 |
| CC(=O)N1CCCN(C(=O)OCC(O)CN2CCc3ccccc3C2)CC1 (centres unmarked) [Example 4V, 3-(3,4-dihydroisoquinolin-2(1H)-yl)-2-hydroxypropyl 4-acetyl-1,4-diazepane-1-carboxylate] | 38900 |
| COC(=O)N1CCCN(C(=O)OCC(O)CN2CCc3ccccc3C2)CC1 (centres unmarked) [Example 4W, 1-(3-(3,4-dihydroisoquinolin-2(1H)-yl)-2-hydroxypropyl) 4-methyl 1,4-diazepane-1,4-dicarboxylate] | 10800 |
| O=C(OC[C@@H](O)CN1CCc2ccccc2C1)N1CCC(C(=O)N2C3CCC2COC3)CC1 [Example 4X, (S)-3-(3,4-dihydroisoquinolin-2(1H)-yl)-2-hydroxypropyl 4-(3-oxa-8-azabicyclo[3.2.1]octane-8-carbonyl)piperidine-1-carboxylate] | 809 |

Further lines, results first:

| IC50 [nM] | Compound |
| --- | --- |
| 1460 | O=C(OCC(O)CN1CCc2sccc2C1)N1CCCc2ccccc21 (centres unmarked) [Example 4Y, 3-(6,7-dihydrothieno[3,2-c]pyridin-5(4H)-yl)-2-hydroxypropyl 3,4-dihydroquinoline-1(2H)-carboxylate] |
| 448 | O=C(OCC(O)CN1CCc2ccsc2C1)N1CCCc2ccccc21 (centres unmarked) [Example 4Z, 3-(4,7-dihydrothieno[2,3-c]pyridin-6(5H)-yl)-2-hydroxypropyl 3,4-dihydroquinoline-1(2H)-carboxylate] |
| 939 | O=C(NCCCN1CCc2ccccc2C1)N1CCC(c2ccccc2)C1 (centres unmarked) [Example 6A, N-(3-(3,4-dihydroisoquinolin-2(1H)-yl)propyl)-3-phenyl pyrrolidine-1-carboxamide] |
| 1700 | O=C(NCCCN1CCc2ccccc2C1)N1CCCC(c2ccccc2)C1 (centres unmarked) [Example 6B, N-(3-(3,4-dihydroisoquinolin-2(1H)-yl)propyl)-3-phenylpiperidine-1-carboxamide] |
| 342 | O=C(OCCCN1CCc2ccccc2C1)N1CCC(c2ccccc2)C1 (centres unmarked) [Example 7, 3-(3,4-dihydroisoquinolin-2(1H)-yl)propyl 3-phenylpyrrolidine-1-carboxylate] |
